Legend:
Type in all cases: in vivo
[1] = tested on: Bean Rust (Uromyces appendiculatus); assay: Greenhouse control of bean rust, second experiment; settings: common bean, 10 days after infection (200 k conidia/ml), RTI472 and SERENADE OPTIMUM 1×10^8 cfu/ml, Tebuconazole 50 g a.i./ha, Chlorothalonil 500 g a.i./ha, non-treated 23% disease
[2] = tested on: Pepper Botrytis Blight (Botrytis cinerea); assay: Greenhouse control of Pepper Botrytis Blight; settings: 7 days after infection (1M conidia/ml), RTI472 and SERENADE OPTIMUM 1×10^8 cfu/ml, Tebuconazole 50 g a.i./ha, Chlorothalonil 500 g a.i./ha, non-treated 6% disease
[3] = tested on: Soybean Powdery Mildew (Microsphaera diffusa); assay: Greenhouse control of soybean powdery mildew; settings: 9 days after placing between infected flats, 1×10^8 cfu/ml, Tebuconazole (HORIZON) 50 g a.i./ha, non-treated 70% disease
[4] = tested on: Pepper Botrytis Blight (Botrytis cinerea); assay: Greenhouse control of Pepper Botrytis Blight at varying pathogen inoculation rates; settings: 4 days after infection, biologicals 1 × 10^8, Tebuconazole 50 g a.i./ha, non-treated 65% disease
[5] = tested on: Pepper Botrytis Blight (Botrytis cinerea); assay: Greenhouse dose response for control of Pepper Botrytis Blight; settings: 3 days after infection (1M conidia/ml), 50 g a.i./ha

| Compound | Percent Disease Control [1] [a Percent] | Percent Disease Control [2] [a Percent] | Percent Disease Control [3] [a Percent] | Percent Disease Control ([4]; inoculum 1M conidia/ml) [a Percent] | Percent Disease Control ([4]; inoculum 2M conidia/ml) [a Percent] | Percent Disease Control [5] [a Percent] |
| --- | --- | --- | --- | --- | --- | --- |
| N#Cc1c(Cl)c(Cl)c(Cl)c(C#N)c1Cl [Chlorothalonil] | 100 | 99 | – | – | – | – |
| CC(C)(C)C(O)(CCc1ccc(Cl)cc1)Cn1cncn1 (centres unmarked) [Tebuconazole] | 100 | 99 | 100 | 100 | 94 | 100 |

— patent US20160183537A1 (priority 2014, published 2016)
